Test results: US12552783B2, “Modulators of proteolysis and associated methods of use” (Arvinas Operations, Inc., priority 2018, dated 2026)

Biological target: KRas (Homo sapiens, UniProt P01116, G12C)
Assay: KRas degradation in NCI-H2030 cells by Western blot, normalized to GAPDH (data of Table 14)
Format: cell-based
Set-up: host or cells: NCI-H2030
Conditions: for Dmax: NCI-H2030
Protocol: Cell Lines, Antibodies, and Reagents. NCI-H2030 (CRL-5914) and SW1573 (CRL-2170) cells were purchased from ATCC. Both cell lines are homozygous for the G12C mutation in KRas. NCI-H2030 cells were cultured in RPMI-1640 medium containing 1% penicillin-streptomycin and 10% fetal bovine serum (FBS). SW1573 cells were cultured in DMEM containing 1% penicillin-streptomycin and 10% FBS. The KRas detection antibody (Cat. No. LS-C175665) was purchased from LifeSpan Biosciences and was used at a dilution of 1:2000. GAPDH was detected using an antibody purchased from Cell Signaling Technology (Cat. No. 5174) and was diluted 1:3000. Secondary anti-mouse and anti-rabbit detection antibodies were purchased from Cell Signaling Technology (Cat. Nos. 7076 and 7074, respectively).
Compound Treatment and Western Blotting of the Data of Table 14. Either NCI-H2030 or SW1573 cells were plated in 12-well plates and allowed to adhere overnight at 37° C. in an incubator containing 5% CO2. The following day, the medium was replaced with the appropriate medium lacking FBS to induce starvation. Cells were returned to the incubator for an additional 24 hours following media exchange. […] Cells were treated with VHL-based compounds for 24 hours and all other compounds for 72 hours. Following treatment, cells were lysed in RIPA buffer (Thermo Fisher Cat. No. 89900) containing phosphatase (Thermo Fisher Cat. No. 1861277) and protease (Thermo Fisher Cat. No. 78429) inhibitor cocktails. Lysates were cleared at 13,000 rpm for 15 minutes and supernatants were assayed for total protein concentration using the Pierce BCA assay system (Thermo Fisher Cat. No. 23225). For each sample, 10 μg total protein was resolved on a 12% Bis-Tris gel and then transferred to a nitrocellulose membrane. After blocking in 3% BSA in TBST (Tris-buffered Saline with 0.1% Tween-20) for 1 hour at room temperature, membranes were probed with the primary antibody (LS Bio Cat. No. LS-C175665) overnight at 4° C. After incubation with the secondary antibody, the following day membranes were visualized using the SuperSignal™ West Femto substrate (Thermo Fisher Cat. No. 34095). The KRas signal in each lane was normalized to GAPDH and percent degradation was either estimated as less than 25% by visual inspection (C in Table 13) or quantitated relative to the DMSO control lane using BIO-RAD Image Lab 5.2.1, and all data was plotted using GraphPad PRISM 6.07.
DC50 is the half-maximal degradation concentration—i.e., the concentration at which 50% degradation is observed. DMax is the maximum degradation efficacy is achieved—i.e., the maximal degradation observed) degradation data.

Row | Structure (SMILES) | Percent Degradation at Indicated Concentration (μM) (H2030, 0.3 μM) | Percent Degradation at Indicated Concentration (μM) (H2030, 1 μM) | Percent Degradation at Indicated Concentration (μM) (H2030, 3 μM) | Dmax | Dmax (H2030 cells) | further results
1 | C=CC(=O)N1CCN(c2nc(O[C@H](C)CN3CCC(OCCOCC(=O)N[C@H](C(=O)N4C[C@H](O)C[C@H]4C(=O)N[C@@H](C)c4ccc(-c5scnc5C)cc4)C(C)(C)C)CC3)nc3c2CCN(c2cc(O)cc4ccccc24)C3)CC1 [compound 406, (2S,4R)-1-((S)-2-(2-(2-((1-((R)-2-((4-(4-acryloylpiperazin-1-yl)-7-(3-hydroxynaphthalen-1-yl)-5,6,7,8-tetrahydropyrido[3,4-d]pyrimidin-2-yl)oxy)propyl)piperidin-4-yl)oxy)ethoxy)acetamido)-3,3-dimethylbutanoyl)-4-hydroxy-N-((S)-1-(4-(4-methylthiazol-5-yl)phenyl)ethyl)pyrrolidine-2-carboxamide] |  |  |  |  |  | Percent Degradation at Indicated Concentration (μM) (H2030 cells, 0.3 μM): C (Percent Degradation: C ≤ 35); Percent Degradation at Indicated Concentration (μM) (H2030 cells, 1 μM): C (Percent Degradation: C ≤ 35); Percent Degradation at Indicated Concentration (μM) (H2030 cells, 3 μM): C (Percent Degradation: C ≤ 35)
2 | C=CC(=O)N1CCN(c2nc(NCCC(=O)N(C)CCOc3ccc4c(c3)C(=O)N(C3CCC(=O)NC3=O)C4=O)nc3c(F)c(-c4cc(O)cc5ccccc45)c(Cl)cc23)CC1 (centres unmarked) [compound 467, 3-((4-(4-acryloylpiperazin-1-yl)-6-chloro-8-fluoro-7-(3-hydroxynaphthalen-1-yl)quinazolin-2-yl)amino)-N-(2-((2-(2,6-dioxopiperidin-3-yl)-1,3-dioxoisoindolin-5-yl)oxy)ethyl)-N-methylpropanamide] | C (Percent Degradation: C ≤ 35) | C (Percent Degradation: C ≤ 35) | C (Percent Degradation: C ≤ 35) | ≤ 35% |  | 
3 | C=CC(=O)N1CCN(c2nc(NCCC(=O)N(C)CCOCCOCCOCCOc3cc(-c4scnc4C)ccc3CNC(=O)[C@@H]3C[C@@H](O)CN3C(=O)[C@H](c3cc(C)no3)C(C)C)nc3c(F)c(-c4c(O)cccc4F)c(Cl)cc23)CC1 (atropisomer, axis not shown) [compound 131, (2S,4R)-N-(2-((15-(((S)-4-(4-acryloylpiperazin-1-yl)-6-chloro-8-fluoro-7-(2-fluoro-6-hydroxyphenyl)quinazolin-2-yl)amino)-12-methyl-13-oxo-3,6,9-trioxa-12-azapentadecyl)oxy)-4-(4-methylthiazol-5-yl)benzyl)-4-hydroxy-1-((S)-3-methyl-2-(3-methylisoxazol-5-yl)butanoyl)pyrrolidine-2-carboxamide] | C (Percent Degradation: C ≤ 35) | C (Percent Degradation: C ≤ 35) | C (Percent Degradation: C ≤ 35) | ≤ 35% |  | 
4 | C=CC(=O)N1CCN(c2nc(NCCC(=O)N(C)CCOCCOCCOCCOCCOc3ccc4c(c3)CN(C3CCC(=O)NC3=O)C4=O)nc3c(F)c(-c4cc(O)cc5ccccc45)c(Cl)cc23)CC1 (centres unmarked) [compound 68, 3-((4-(4-acryloylpiperazin-1-yl)-6-chloro-8-fluoro-7-(3-hydroxynaphthalen-1-yl)quinazolin-2-yl)amino)-N-(14-((2-(2,6-dioxopiperidin-3-yl)-1-oxoisoindolin-5-yl)oxy)-3,6,9,12-tetraoxatetradecyl)-N-methylpropanamide] | C (Percent Degradation: C ≤ 35) | C (Percent Degradation: C ≤ 35) | C (Percent Degradation: C ≤ 35) | ≤ 35% |  | 
5 | C=CC(=O)N1CCN(c2nc(NCCC(=O)N(C)CCOCCOCCOCCOCCNC(=O)c3ccc(NC(=O)[C@@H]4N[C@@H](CC(C)(C)C)[C@](C#N)(c5ccc(Cl)cc5F)[C@H]4c4cccc(Cl)c4F)c(OC)c3)nc3c(F)c(-c4cc(O)cc5ccccc45)c(Cl)cc23)CC1 [compound 304, (2R,3S,4R,5S)-N-(4-((18-((4-(4-acryloylpiperazin-1-yl)-6-chloro-8-fluoro-7-(3-hydroxynaphthalen-1-yl)quinazolin-2-yl)amino)-15-methyl-16-oxo-3,6,9,12-tetraoxa-15-azaoctadecyl)carbamoyl)-2-methoxyphenyl)-3-(3-chloro-2-fluorophenyl)-4-(4-chloro-2-fluorophenyl)-4-cyano-5-neopentylpyrrolidine-2-carboxamide] | C (Percent Degradation: C ≤ 35) | C (Percent Degradation: C ≤ 35) | C (Percent Degradation: C ≤ 35) | ≤ 35% |  | 
6 | CCC(=O)N1CCN(c2nc(NCCC(=O)N(C)CCOCCOc3cc(-c4scnc4C)ccc3CNC(=O)[C@@H]3C[C@@H](O)CN3C(=O)[C@H](c3cc(C)no3)C(C)C)nc3c(F)c(-c4cc(O)cc5ccccc45)c(Cl)cc23)CC1 [compound 331, (2S,4R)-N-(2-(2-(2-(3-((6-chloro-8-fluoro-7-(3-hydroxynaphthalen-1-yl)-4-(4-propionylpiperazin-1-yl)quinazolin-2-yl)amino)-N-methylpropanamido)ethoxy)ethoxy)-4-(4-methylthiazol-5-yl)benzyl)-4-hydroxy-1-((S)-3-methyl-2-(3-methylisoxazol-5-yl)butanoyl)pyrrolidine-2-carboxamide] |  |  |  |  | ≤ 35% | Percent Degradation at Indicated Concentration (μM): 0.3 (H2030 cells, 0.3 μM): C (C ≤ 35); Percent Degradation at Indicated Concentration (μM): 1 (H2030 cells, 1 μM): C (C ≤ 35); Percent Degradation at Indicated Concentration (μM): 3 (H2030 cells, 3 μM): C (C ≤ 35)
7 | C=CC(=O)N1CCN(c2nc(NCCC(=O)N(C)CCOCCOCCOCC(=O)N[C@H](C(=O)N3C[C@H](O)C[C@H]3C(=O)N[C@@H](C)c3ccc(-c4scnc4C)cc3)C(C)(C)C)nc3c(F)c(-c4cc(O)cc5ccccc45)c(Cl)cc23)CC1 [compound 193, (2S,4R)-1-((2S)-18-((4-(4-acryloylpiperazin-1-yl)-6-chloro-8-fluoro-7-(3-hydroxynaphthalen-1-yl)quinazolin-2-yl)amino)-2-(tert-butyl)-15-methyl-4,16-dioxo-6,9,12-trioxa-3,15-diazaoctadecanoyl)-4-hydroxy-N-((S)-1-(4-(4-methylthiazol-5-yl)phenyl)ethyl)pyrrolidine-2-carboxamide] |  |  |  |  | ≤ 35% | Percent Degradation at Indicated Concentration (μM): 0.3 (H2030 cells, 0.3 μM): C (C ≤ 35); Percent Degradation at Indicated Concentration (μM): 1 (H2030 cells, 1 μM): C (C ≤ 35); Percent Degradation at Indicated Concentration (μM): 3 (H2030 cells, 3 μM): C (C ≤ 35)
8 | C=CC(=O)N1CCN(c2nc(NCCC(=O)N(C)CCOCCOCCOCC(=O)N[C@H](C(=O)N3C[C@H](O)C[C@H]3C(=O)N[C@@H](C)c3ccc(-c4scnc4C)cc3)C(C)(C)C)nc3c(F)c(-c4c(O)cccc4F)c(Cl)cc23)CC1 (atropisomer, axis not shown) [compound 209, (2S,4R)-1-((S)-18-((4-(4-acryloylpiperazin-1-yl)-6-chloro-8-fluoro-7-((S)-2-fluoro-6-hydroxyphenyl)quinazolin-2-yl)amino)-2-(tert-butyl)-15-methyl-4,16-dioxo-6,9,12-trioxa-3,15-diazaoctadecanoyl)-4-hydroxy-N-((S)-1-(4-(4-methylthiazol-5-yl)phenyl)ethyl)pyrrolidine-2-carboxamide] |  |  | C (Percent Degradation: C ≤ 35) |  |  | 
9 | Cc1ncsc1-c1ccc([C@H](C)NC(=O)[C@@H]2C[C@@H](O)CN2C(=O)[C@@H](NC(=O)COCCOCCOCCN(C)C(=O)CCNc2nc(N3CCN(C(=O)C(O)O)CC3)c3cc(Cl)c(-c4c(O)cccc4F)c(F)c3n2)C(C)(C)C)cc1 (atropisomer, axis not shown) [compound 239, (2S4R)-1-((S)-2-(tert-butyl)-18-((6-chloro-4-(4-(2,2-dihydroxyacetyl)piperazin-1-yl)-8-fluoro-7-((R)-2-fluoro-6-hydroxyphenyl)quinazolin-2-yl)amino)-15-methyl-4,16-dioxo-6,9,12-trioxa-3,15-diazaoctadecanoyl)-4-hydroxy-N-((S)-1-(4-(4-methylthiazol-5-yl)phenyl)ethyl)pyrrolidine-2-carboxamide,] |  |  |  |  | ≤ 35% | Percent Degradation at Indicated Concentration (μM) (H2030 cells, 0.3 μM): C (Percent Degradation: C ≤ 35); Percent Degradation at Indicated Concentration (μM) (H2030 cells, 1 μM): C (Percent Degradation: C ≤ 35); Percent Degradation at Indicated Concentration (μM) (H2030 cells, 3 μM): C (Percent Degradation: C ≤ 35)
